Bridge positions count the residues as written; N and C are the ends. Square brackets hold non-standard residues; d marks the D form. Peptide text beside a SMILES is read from it. * marks the point of attachment. ξ: configuration not given here. 5FAM = O=C1OC2(c3ccc(O)cc3Oc3cc(O)ccc32)c2ccc(C(=O)*)cc21; ξTetrahydrofuran2carbonyl = O=C(C1CCCO1)*; Cha = N[C@@H](CC1CCCCC1)C(=O)O; AEEA = NCCOCCOCC(=O)O
Target: DDE (fibrin-derived polypeptide) (Homo sapiens, UniProt P02671+P02675+P02679)
Assay: Direct binding fluorescence polarization (FP) assay using 5-carboxyfluorescein labeled peptides
Conditions: 20 nM CF5-labeled peptide, serial dilutions of DDE, anisotropy read at 485 nm; read-out: KD (μM) Direct Binding (n = 2)
Experimental: Assay of Fibrin Binding Peptides by Direct Binding Fluorescence Polarization (FP) Procedure using 5-Carboxyfluoresein Labeled Peptides
Protocol • 1. Prepare 1 mL of 40 nM solution of 5-carboxyfluorescein-labeled peptide in HEPES dilution buffer (HDB) with 0.01% Tween. • HDB (10 mM HEPES, 150 mM […], 2 mM CaCl2) • 2. Dilute the 40 nM solution to obtain 1 ml of a 20 nM solution of the test 5-carboxyfluorescein-labeled peptide. • 3. Prepare a solution of DDE at a concentration that will be approximately 5-10 fold greater than the expected KD. For the described assay an 8 μM concentration of DDE was prepared. • 4. Mix equal volumes of the DDE solution with the 40 nM peptide solution. • 5. Prepare serial dilutions of DDE in a solution consisting of the binding buffer with 0.01% Tween20 and 20 nM of the 5-carboxyfluorescein-labeled peptide. • 6. Make dilutions as shown in the following table in a Labsystems 384-well microplate and mix by repeated aspiration and dispensing of the solution into the wells. • 7. Centrifuge the plate at 2000 RPM for 5 minutes to remove air pockets in the wells. • 8. Read in Tecan Polarion Plate Reader at 485 nm to obtain the anisotropy value.
The anisotropy (in mP—millipolarization units) vs the logarithm of the concentration (micromoles/liter) of the receptor concentration is graphed. The dissociation constant is obtained at the midpoint of the curve whose extrema are Afree and Abound where Afree is the anisotropy of the free peptide and Abound is the anisotropy of the fully bound peptide. The theory, methods of operation and mathematical analysis is described in, for example, the following reference: Fluorescence Polarization Technical Resource Guide Technical Resource Guide 4th Edn. Invitrogen Corporation•501 Charmany Drive•Madison, Wis. 53719 USA. Particularly, the mathematical analysis of the data and obtaining binding constants is described in Chapter 8: Analysis of FP Binding Data pp 8-2-8-7.

DDE (fibrin-derived polypeptide), sequence (P02671 124-216): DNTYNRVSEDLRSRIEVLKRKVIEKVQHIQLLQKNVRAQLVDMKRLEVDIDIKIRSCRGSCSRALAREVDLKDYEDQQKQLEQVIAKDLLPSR
DDE (fibrin-derived polypeptide), sequence (P02675 164-491): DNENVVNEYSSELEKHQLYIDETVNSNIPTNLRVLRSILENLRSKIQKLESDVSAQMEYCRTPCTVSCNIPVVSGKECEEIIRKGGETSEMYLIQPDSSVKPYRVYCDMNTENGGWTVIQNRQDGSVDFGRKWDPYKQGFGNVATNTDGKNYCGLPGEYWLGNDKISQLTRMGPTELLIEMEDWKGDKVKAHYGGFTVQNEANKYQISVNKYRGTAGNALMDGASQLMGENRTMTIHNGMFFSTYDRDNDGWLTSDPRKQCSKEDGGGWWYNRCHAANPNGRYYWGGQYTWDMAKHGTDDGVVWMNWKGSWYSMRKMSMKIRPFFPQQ
DDE (fibrin-derived polypeptide), sequence (P02679 114-432): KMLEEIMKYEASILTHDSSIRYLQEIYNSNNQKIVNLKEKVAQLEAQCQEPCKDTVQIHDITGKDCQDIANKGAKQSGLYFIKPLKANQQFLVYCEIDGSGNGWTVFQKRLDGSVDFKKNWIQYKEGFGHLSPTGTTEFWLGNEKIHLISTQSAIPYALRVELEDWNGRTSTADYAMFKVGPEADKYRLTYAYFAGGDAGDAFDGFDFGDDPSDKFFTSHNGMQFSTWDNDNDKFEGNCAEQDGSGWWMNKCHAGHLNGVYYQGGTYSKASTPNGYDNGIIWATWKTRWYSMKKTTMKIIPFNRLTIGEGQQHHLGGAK
DDE (fibrin-derived polypeptide), sequence (P02671 36-97): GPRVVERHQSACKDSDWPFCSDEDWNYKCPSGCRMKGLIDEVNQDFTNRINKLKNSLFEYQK
DDE (fibrin-derived polypeptide), sequence (P02675 45-152): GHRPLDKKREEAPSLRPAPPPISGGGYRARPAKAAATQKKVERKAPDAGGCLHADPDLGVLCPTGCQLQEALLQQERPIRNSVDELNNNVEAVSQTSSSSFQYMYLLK
DDE (fibrin-derived polypeptide), sequence (P02679 27-88): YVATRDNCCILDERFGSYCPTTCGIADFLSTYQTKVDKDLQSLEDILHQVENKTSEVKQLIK

C[C@@H]1NC(=O)[C@@H]2CCCN2C(=O)[C@@H](NC(=O)[C@@H]2CCCN2C(=O)[C@H](CCC(N)=O)NC(=O)[C@H](Cc2c[nH]c3ccccc23)NC(=O)[C@@H](N)CCCNC(=N)N)CSSC[C@@H](C(=O)N[C@@H](Cc2c[nH]c3ccccc23)C(=O)N[C@@H](CC(=O)O)C(=O)N2CCC[C@H]2C(=O)NCC(=O)NCC(=O)NCC(=O)N[C@@H](CCCCNC(=O)c2ccc3c(c2)C(=O)OC32c3ccc(O)cc3Oc3cc(O)ccc32)C(N)=O)NC(=O)[C@H](Cc2ccccc2)NC(=O)[C@H]([C@@H](C)O)NC(=O)[C@H](Cc2c[nH]c3ccccc23)NC(=O)[C@H](CO)NC(=O)[C@H](CCC(=O)O)NC1=O [Seq056-CF5] (H-RWQPCPAESWTFCWDPGGGK(5FAM)-NH2; disulfide 5-13)
Kd: 0.06 µM

CC(=O)NCC(=O)NCC(=O)N[C@@H](CCCNC(=N)N)C(=O)NCC(=O)N[C@@H](Cc1c[nH]c2ccccc12)C(=O)N[C@@H](CCC(N)=O)C(=O)N1CCC[C@H]1C(=O)N[C@H]1CSSC[C@@H](C(=O)N[C@@H](Cc2c[nH]c3ccccc23)C(=O)N[C@@H](CC(=O)O)C(=O)N2CCC[C@H]2C(=O)NCC(=O)NCC(=O)NCC(=O)N[C@@H](CCCCNC(=O)c2ccc3c(c2)C(=O)OC32c3ccc(O)cc3Oc3cc(O)ccc32)C(N)=O)NC(=O)[C@H](Cc2ccccc2)NC(=O)[C@H]([C@@H](C)O)NC(=O)[C@H](Cc2c[nH]c3ccccc23)NC(=O)[C@H](CO)NC(=O)[C@H](CCC(=O)O)NC(=O)[C@H](Cc2c[nH]c3ccccc23)NC(=O)[C@@H]2CCCN2C1=O [Seq015-CF5] (Ac-GGRGWQPCPWESWTFCWDPGGGK(5FAM)-NH2; disulfide 8-16)
Kd: 0.29 µM

CC(=O)N[C@@H](CCCNC(=N)N)C(=O)N[C@@H](Cc1c[nH]c2ccccc12)C(=O)N[C@@H](CCC(N)=O)C(=O)N1CCC[C@H]1C(=O)N[C@H]1CSSC[C@@H](C(=O)N[C@@H](Cc2c[nH]c3ccccc23)C(=O)N[C@@H](CC(=O)O)C(=O)N2CCC[C@H]2C(=O)NCC(=O)NCC(=O)NCC(=O)N[C@@H](CCCCNC(=O)c2ccc3c(c2)C(=O)OC32c3ccc(O)cc3Oc3cc(O)ccc32)C(N)=O)NC(=O)[C@H](CC2CCCCC2)NC(=O)[C@H]([C@@H](C)O)NC(=O)[C@H](Cc2c[nH]c3ccccc23)NC(=O)[C@H](CO)NC(=O)[C@H](CCC(=O)O)NC(=O)[C@H](C)NC(=O)[C@@H]2CCCN2C1=O [Seq050-CF5, Ac-RWQPC*PAESWT-Cha-C*WDPGGGK(CF5)-NH2] (Ac-RWQPCPAESWT[Cha]CWDPGGGK(5FAM)-NH2; disulfide 5-13)
Kd: 0.08 µM

C[C@@H](O)[C@@H]1NC(=O)[C@H](Cc2c[nH]c3ccccc23)NC(=O)[C@H](CO)NC(=O)[C@H](CCC(=O)O)NC(=O)[C@H](Cc2c[nH]c3ccccc23)NC(=O)[C@@H]2CCCN2C(=O)[C@@H](NC(=O)[C@@H]2CCCN2C(=O)[C@H](CCC(N)=O)NC(=O)[C@H](Cc2c[nH]c3ccccc23)NC(=O)C2CCCO2)CSSC[C@@H](C(=O)N[C@@H](Cc2c[nH]c3ccccc23)C(=O)N[C@@H](CC(=O)O)C(=O)N2CCC[C@H]2C(=O)NCC(=O)NCC(=O)NCC(=O)N[C@@H](CCCCNC(=O)c2ccc3c(c2)C(=O)OC32c3ccc(O)cc3Oc3cc(O)ccc32)C(N)=O)NC(=O)[C@H](Cc2ccccc2)NC1=O (stereo partly shown) [Seq028-CF5] (ξTetrahydrofuran2carbonyl-WQPCPWESWTFCWDPGGGK(5FAM)-NH2; disulfide 4-12)
Kd: 1.21 µM

CC(=O)N[C@@H](Cc1c[nH]c2ccccc12)C(=O)N[C@@H](CCC(N)=O)C(=O)N1CCC[C@H]1C(=O)N[C@H]1CSSC[C@@H](C(=O)N[C@@H](Cc2c[nH]c3ccccc23)C(=O)N[C@@H](CC(=O)O)C(=O)N2CCC[C@H]2C(=O)NCC(=O)NCC(=O)NCC(=O)N[C@@H](CCCCNC(=O)c2ccc3c(c2)C(=O)OC32c3ccc(O)cc3Oc3cc(O)ccc32)C(N)=O)NC(=O)[C@H](CC2CCCCC2)NC(=O)[C@H]([C@@H](C)O)NC(=O)[C@H](Cc2c[nH]c3ccccc23)NC(=O)[C@H](CO)NC(=O)[C@H](CCC(=O)O)NC(=O)[C@H](C)NC(=O)[C@@H]2CCCN2C1=O [Seq042-CF5, Ac-WQPC*PAESWT-Cha-C*WDPGGGK(CF5)-NH2] (Ac-WQPCPAESWT[Cha]CWDPGGGK(5FAM)-NH2; disulfide 4-12)
Kd: 0.17 µM

CC(=O)N[C@@H](CO)C(=O)NCC(=O)N[C@@H](CO)C(=O)NCC(=O)N[C@@H](CO)C(=O)NCC(=O)N[C@@H](CO)C(=O)NCC(=O)N[C@@H](Cc1c[nH]c2ccccc12)C(=O)N[C@@H](CCC(N)=O)C(=O)N1CCC[C@H]1C(=O)N[C@H]1CSSC[C@@H](C(=O)N[C@@H](Cc2c[nH]c3ccccc23)C(=O)N[C@@H](CC(=O)O)C(=O)N2CCC[C@H]2C(=O)NCC(=O)NCC(=O)NCC(=O)N[C@@H](CCCCNC(=O)c2ccc3c(c2)C(=O)OC32c3ccc(O)cc3Oc3cc(O)ccc32)C(N)=O)NC(=O)[C@H](Cc2ccccc2)NC(=O)[C@H]([C@@H](C)O)NC(=O)[C@H](Cc2c[nH]c3ccccc23)NC(=O)[C@H](CO)NC(=O)[C@H](CCC(=O)O)NC(=O)[C@H](Cc2c[nH]c3ccccc23)NC(=O)[C@@H]2CCCN2C1=O [Seq024-CF5] (Ac-SGSGSGSGWQPCPWESWTFCWDPGGGK(5FAM)-NH2; disulfide 12-20)
Kd: 0.47 µM

CC(=O)N[C@@H](CO)C(=O)NCC(=O)N[C@@H](CO)C(=O)NCC(=O)NCCOCCOCC(=O)N[C@@H](Cc1c[nH]c2ccccc12)C(=O)N[C@@H](CCC(N)=O)C(=O)N1CCC[C@H]1C(=O)N[C@H]1CSSC[C@@H](C(=O)N[C@@H](Cc2c[nH]c3ccccc23)C(=O)N[C@@H](CC(=O)O)C(=O)N2CCC[C@H]2C(=O)NCC(=O)NCC(=O)NCC(=O)N[C@@H](CCCCNC(=O)c2ccc3c(c2)C(=O)OC32c3ccc(O)cc3Oc3cc(O)ccc32)C(N)=O)NC(=O)[C@H](Cc2ccccc2)NC(=O)[C@H]([C@@H](C)O)NC(=O)[C@H](Cc2c[nH]c3ccccc23)NC(=O)[C@H](CO)NC(=O)[C@H](CCC(=O)O)NC(=O)[C@H](C)NC(=O)[C@@H]2CCCN2C1=O [Seq045-CF5] (Ac-SGSG[AEEA]WQPCPAESWTFCWDPGGGK(5FAM)-NH2; disulfide 9-17)
Kd: 0.57 µM

CC(=O)N[C@@H](CCCNC(=N)N)C(=O)N[C@@H](Cc1c[nH]c2ccccc12)C(=O)N[C@@H](CCC(N)=O)C(=O)N1CCC[C@H]1C(=O)N[C@H]1CSSC[C@@H](C(=O)N[C@@H](Cc2c[nH]c3ccccc23)C(=O)N[C@@H](CC(=O)O)C(=O)N2CCC[C@H]2C(=O)NCC(=O)NCC(=O)NCC(=O)N[C@@H](CCCCNC(=O)c2ccc3c(c2)C(=O)OC32c3ccc(O)cc3Oc3cc(O)ccc32)C(N)=O)NC(=O)[C@H](Cc2ccccc2)NC(=O)[C@H]([C@@H](C)O)NC(=O)[C@H](Cc2c[nH]c3ccccc23)NC(=O)[C@H](CO)NC(=O)[C@H](CCC(=O)O)NC(=O)[C@H](C)NC(=O)[C@@H]2CCCN2C1=O [Seq049-CF5] (Ac-RWQPCPAESWTFCWDPGGGK(5FAM)-NH2; disulfide 5-13)
Kd: 0.21 µM

CC(=O)NCC(=O)N1CCC[C@H]1C(=O)N1CCC[C@H]1C(=O)NCC(=O)N[C@@H](Cc1c[nH]c2ccccc12)C(=O)N[C@@H](CCC(N)=O)C(=O)N1CCC[C@H]1C(=O)N[C@H]1CSSC[C@@H](C(=O)N[C@@H](Cc2c[nH]c3ccccc23)C(=O)N[C@@H](CC(=O)O)C(=O)N2CCC[C@H]2C(=O)NCC(=O)NCC(=O)NCC(=O)N[C@@H](CCCCNC(=O)c2ccc3c(c2)C(=O)OC32c3ccc(O)cc3Oc3cc(O)ccc32)C(N)=O)NC(=O)[C@H](Cc2ccccc2)NC(=O)[C@H]([C@@H](C)O)NC(=O)[C@H](Cc2c[nH]c3ccccc23)NC(=O)[C@H](CO)NC(=O)[C@H](CCC(=O)O)NC(=O)[C@H](C)NC(=O)[C@@H]2CCCN2C1=O [Seq034-CF5] (Ac-GPPGWQPCPAESWTFCWDPGGGK(5FAM)-NH2; disulfide 8-16)
Kd: 0.31 µM

C[C@@H]1NC(=O)[C@@H]2CCCN2C(=O)[C@@H](NC(=O)[C@@H]2CCCN2C(=O)[C@H](CCC(N)=O)NC(=O)[C@H](Cc2c[nH]c3ccccc23)NC(=O)CN)CSSC[C@@H](C(=O)N[C@@H](Cc2c[nH]c3ccccc23)C(=O)N[C@@H](CC(=O)O)C(=O)N2CCC[C@H]2C(=O)NCC(=O)NCC(=O)NCC(=O)N[C@@H](CCCCNC(=O)c2ccc3c(c2)C(=O)OC32c3ccc(O)cc3Oc3cc(O)ccc32)C(N)=O)NC(=O)[C@H](CC2CCCCC2)NC(=O)[C@H]([C@@H](C)O)NC(=O)[C@H](Cc2c[nH]c3ccccc23)NC(=O)[C@H](CO)NC(=O)[C@H](CCC(=O)O)NC1=O [Seq051-CF5, GWQPC*PAESWT-Cha-C*WDPGGGK(CF5)-NH2] (H-GWQPCPAESWT[Cha]CWDPGGGK(5FAM)-NH2; disulfide 5-13; N-terminus assumed)
Kd: 0.06 µM

Source: patent publication US8466107B2, “Fibrin-binding peptides and conjugates thereof” (Bracco Imaging SpA, priority 2006, dated 2013)
